Laboratory results taken from EP0643053A1, “Process for the manufacture of phenoxyphenoxyalkyl derivatives” (CIBA-GEIGY AG, priority 1993, dated 1995).

How the values were obtained:
Assay type in all cases: in vivo
[1] = tested on: Adoxophyes reticulana eggs; experiment: Activity against Adoxophyes reticulana (ovicidal), egg immersion test; details: 144 h; 400 ppm of active ingredient in acetone/water; eggs on filter paper immersed; after 6 days; vs untreated control; isomer ratios A, B and C used; read-out: activity (% reduction in hatching rate)
Description: (§1) The active ingredient is used, in each case, in three different isomer ratios A, B and C: A = 37.8 % of 2R,4S-isomer IIIa, 37.8% of 2S,4R-isomer IIIb, 12.2% of 2R,4R-isomer IIIc and 12.2% of 2S,4S-isomer IIId; B = 40.2% of 2R,4S-isomer IIIa, 40.2% of 2S,4R-isomer IIIb, 9.8% of 2R,4R-isomer IIIc and 9.8% of 2S,4S-isomer IIId; and C = 36.7% of 2R,4S-isomer IIIa, 36.7% of 2S,4R-isomer IIIb, 13.3% of 2R,4R-isomer IIIc and 13.3% of 2S,4S-isomer IIId. Example B1: Activity against Adoxophyes reticulana (ovicidal) Adoxophyes reticulana eggs which have been deposited on filter paper are briefly immersed into a test solution of 400 ppm of active ingredient in acetone/water. After the test solution has dried on, the eggs are incubated in Petri dishes. After 6 days, the percentage hatching rate of the eggs is evaluated by comparison with untreated control batches (% reduction in hatching rate). In this test, the compound of the formula III has an activity of over 80%.

[2] = tested on: Aonidiella aurantii crawlers; experiment: Activity against Aonidiella aurantii on Citrus trifoliata cuttings (spray); details: 50 ppm of active ingredient; Citrus trifoliata cuttings sprayed to drip point; after 10 to 12 weeks; isomer ratios A, B and C used
Description: (§2) The active ingredient is used, in each case, in three different isomer ratios A, B and C: A = 37.8 % of 2R,4S-isomer IIIa, 37.8% of 2S,4R-isomer IIIb, 12.2% of 2R,4R-isomer IIIc and 12.2% of 2S,4S-isomer IIId; B = 40.2% of 2R,4S-isomer IIIa, 40.2% of 2S,4R-isomer IIIb, 9.8% of 2R,4R-isomer IIIc and 9.8% of 2S,4S-isomer IIId; and C = 36.7% of 2R,4S-isomer IIIa, 36.7% of 2S,4R-isomer IIIb, 13.3% of 2R,4R-isomer IIIc and 13.3% of 2S,4S-isomer IIId. Example B3: Activity against Aonidiella aurantii Citrus trifoliata cuttings are populated with Aonidiella aurantii crawlers. After about 2 weeks, the cuttings are sprayed to drip point with an aqueous emulsion spray mixture comprising 50 ppm of active ingredient. To evaluate the experiment after 10 to 12 weeks, the survival rate of the crawlers of the first subsequent generation of the treated population is compared with that of untreated control batches. In this test, the compound of the formula III has an activity of over 80%.

Nilaparvata lugens [3] = experiment: Activity against Nilaparvata lugens on sprayed rice plants; details: 504 h, 400 ppm of active ingredient, larvae in the 2nd and 3rd stages, after 21 days, isomer ratios A, B and C used, read-out: percentage reduction in population (% activity)
Description: The active ingredient is used, in each case, in three different isomer ratios A, B and C: A = 37.8 % of 2R,4S-isomer IIIa, 37.8% of 2S,4R-isomer IIIb, 12.2% of 2R,4R-isomer IIIc and 12.2% of 2S,4S-isomer IIId; B = 40.2% of 2R,4S-isomer IIIa, 40.2% of 2S,4R-isomer IIIb, 9.8% of 2R,4R-isomer IIIc and 9.8% of 2S,4S-isomer IIId; and C = 36.7% of 2R,4S-isomer IIIa, 36.7% of 2S,4R-isomer IIIb, 13.3% of 2R,4R-isomer IIIc and 13.3% of 2S,4S-isomer IIId. Example B5: Activity against Nilaparvata lugens Rice plants are sprayed with an aqueous emulsion spray mixture comprising 400 ppm of active ingredient. After the spray coating has dried on, the plants are populated with plant hopper larvae in the 2nd and 3rd stages. The test is evaluated after 21 days. The percentage reduction in population (% activity) is determined by comparing the number of surviving plant hoppers on the treated and untreated plants. In this test, the compound of the formula III has an activity of over 80%.

Nilaparvata lugens [4] = experiment: Activity against Nilaparvata lugens (systemic), rice plants in pots; details: 144 h, 10 ppm of active ingredient in aqueous emulsion solution, larvae in the 2nd and 3rd stages, after 6 days, isomer ratios A, B and C used, read-out: percentage reduction in population (% activity)
Description: The active ingredient is used, in each case, in three different isomer ratios A, B and C: A = 37.8 % of 2R,4S-isomer IIIa, 37.8% of 2S,4R-isomer IIIb, 12.2% of 2R,4R-isomer IIIc and 12.2% of 2S,4S-isomer IIId; B = 40.2% of 2R,4S-isomer IIIa, 40.2% of 2S,4R-isomer IIIb, 9.8% of 2R,4R-isomer IIIc and 9.8% of 2S,4S-isomer IIId; and C = 36.7% of 2R,4S-isomer IIIa, 36.7% of 2S,4R-isomer IIIb, 13.3% of 2R,4R-isomer IIIc and 13.3% of 2S,4S-isomer IIId. Example B6: Activity against Nilaparvata lugens (systemic) Pots containing rice plants are placed into an aqueous emulsion solution comprising 10 ppm of active ingredient. The plants are subsequently populated with larvae in the 2nd and 3rd stages. The test is evaluated after 6 days. The percentage reduction in population (% activity) is determined by comparing the number of plant hoppers on the treated and untreated plants. In this test, the compound of the formula III has an activity of over 80%.

[5] = tested on: Aonidiella aurantii crawlers; experiment: Activity against Aonidiella aurantii on potato tubers (immersion); details: 400 ppm of active ingredient; potato tubers immersed in aqueous emulsion or suspension spray mixture; after 10 to 12 weeks; isomer ratios A, B and C used
Description: as §2, with “B2:” for “B3:”, “Potato tubers” for “Citrus trifoliata cuttings”, “potatoes” for “cuttings”, “immersed into” for “sprayed to drip point with”, “or suspension spray mixture which comprises 400” for “comprising 50”, “ingredient. After the tubers have dried, they are incubated in a plastic container.” for “ingredient.”

Cydia pomonella eggs = experiment: Activity against Cydia pomonella (ovicidal), egg immersion test; details: 144 h, 400 ppm of active ingredient in acetone/water, eggs on filter paper immersed, after 6 days, vs untreated control, isomer ratios A, B and C used, read-out: activity (% reduction in hatching rate)
Description: as §1, with “B4:” for “B1:”, “Cydia pomonella” for “Adoxophyes reticulana”

## CCC1OCC(COc2ccc(Oc3ccccc3)cc2)O1 (racemic) [compound of the formula III, 2-ethyl-4-(4-phenoxyphenoxymethyl)-1,3-dioxolane]
[1]
  activity at 400 ppm: > 80%
[2]
  activity (survival rate of the crawlers of the first subsequent generation compared with untreated control): over 80%
Nilaparvata lugens [3]
  activity at 400 ppm: > 80%
Nilaparvata lugens [4]
  activity at 10 ppm: > 80%
[5]
  activity (survival rate of the crawlers of the first subsequent generation compared with untreated control): over 80%
Cydia pomonella eggs
  activity at 400 ppm: > 80%
